# Patent US20150246137A1, “LIPID COATED NANOPARTICLES CONTAINING AGENTS HAVING LOW AQUEOUS AND LIPID SOLUBILITIES AND METHODS THEREOF” (THE UNIVERSITY OF NORTH CAROLINA AT CHAPEL HILL, priority 2012, published 2015)
# pIC50: −log10 of the molar value. “Also recorded” adds a separate entry of the source.
# Assays:
# A375M cells [1] = test: Cell toxicity assay (MTS); type: cell-based, human; settings: 48 h, read-out: IC50, growth inhibition
# Experimental: A375M cells were seeded in 96-well plates at a density of 2000 cells/well and incubated in 10% FBS of DMEM containing 100 U/mL penicillin and […] streptomycin for 20 h. The medium was removed and replaced by Opti-MEM containing CDDP or LPC NPs. Forty-eight hours later, a CellTiter 96 AQueous One Solution Cell Proliferation Assay (Promega, Madison, Wis.) kit containing the tetrazolium compound MTS was used to assay cell viability according to the manufacturer's protocols. The IC50 values were calculated using Graphpad Prism 5 (Graphpad Software Inc.)
# 1205Lu cells = test: Cell toxicity assay (MTS); type: cell-based, human; settings: 48 h
# Experimental: 1205Lu cells were seeded in 96-well plates at a density of 2000 cells/well and incubated in 10% FBS of DMEM containing 100 U/mL penicillin, and […] streptomycin for 20 h. Then, the medium was removed and replaced by Opti-MEM containing CDDP or LPC NPs. Forty-eight hours later, a CellTiter 96 AQueous One Solution Cell Proliferation Assay (Promega, Madison, Wis.) kit containing the tetrazolium compound MTS was used to assay cell viability according to the manufacturer's protocols.
# [2] = Biodistribution of Pt in A375M tumor-bearing mice; type: in vivo; settings: twenty-four hours post-IV injection, 1.0 mg/kg Pt
# Experimental: […] Tissue samples were digested by concentrated nitric acid overnight at room temperature and processed according to the procedure reported previously the literature.119, 120 The concentration of Pt was measured using ICP-MS.
# [3] = system: A375M melanoma xenograft tumors; test: In vivo anticancer efficacy, A375M xenograft; set-up: species or system nude mice; settings: weekly IV, 1.0 mg/kg Pt
# Experimental: All procedures involving experimental mice are performed in accordance with the protocols conformed to the Guide for the Care and Use of Laboratory Animals (NIH publication No. 86-23, revised 1985). Female athymic nude mice, 5-6 weeks old and weighing 18-22 g were obtained. 5×10^6 A375M cells were injected subcutaneously into the mice. After 10 days, the mice were randomly divided into four groups (4-6 mice per group). The mice were treated with weekly IV injections of CDDP and LPC NPs and saline as a control. A dose of 1.0 mg/kg Pt was administered. Thereafter, tumor growth and body weight were monitored. Tumor volume was calculated using the following formula: TV=(L×W^2)/2, with W being smaller than L. Finally, mice were sacrificed using a CO2 inhalation method.
# After the therapeutic experiment was complete, blood samples were collected and allowed to clot for 2 h at room temperature. […] For liver and renal function experiments, the levels of aspartate aminotransferase, alanine aminotransferase, and blood urea nitrogen in the serum were measured. […]
# The tumors were fixed in 4.0% paraformaldehyde (PFA), paraffin-embedded, and sectioned. […] TUNEL-positive nuclei were monitored by using a fluorescence microscope (Nikon, Tokyo, Japan). […] TUNEL-positive cells in three slides of images taken at 40× magnification were counted to quantify apoptosis.
# 1205Lu xenograft tumors = test: In vivo anticancer efficacy, 1205Lu xenograft; set-up: species or system nude mice; settings: 2.0 mg/kg Pt
# Experimental: Female athymic nude mice, 5-6 weeks old and weighing 18-22 g were obtained. 1205Lu xenograft tumors were developed through subcutaneous injection of approximately 5 million 1205Lu cells in female nude mice. […] Tumor growth and body weight were monitored. Tumor volume was calculated using the following formula: TV=(L×W^2)/2, with W being smaller than L. Finally, mice were sacrificed by CO2 inhalation. Tumors were collected after treatment and were formalin fixed and processed for TUNEL assay.
# The tumors were fixed in 4.0% paraformaldehyde (PFA) and subsequently paraffin-embedded and sectioned. To detect apoptotic cells in tumor tissues, a TUNEL assay, using a DeadEnd™ Fluorometric TUNEL System (Promega, Madison, Wis.), was performed, following the manufacturer's protocol. Cell nuclei, which were stained with green fluorescence, are defined as TUNEL-positive nuclei. TUNEL-positive nuclei were monitored using a fluorescence microscope (Nikon, Tokyo, Japan). The cell nuclei were stained with 4, 6-diaminidino-2-phenyl-indole (DAPI) (Vectashield, Vector Laboratories, Inc., Burlingame, Calif.). To quantify TUNEL-positive cells, green-fluorescence-positive cells are counted in three images taken at 40× magnification.
# A375M cells [4] = test: In vitro neighboring effect study (co-culture, Annexin V); type: cell-based, human; settings: 48 h co-culture 1:10, A375M-GFP pretreated 50 μM Pt 4 h
# Experimental: A375M-GFP cells (2×10^5) were seeded in 6-well plates (Corning Inc., Corning, N.Y.) 20 h before the beginning of the experiments. […] The A375M-GFP cells were mixed with A375M cells at the ratio of 1:10 (total cell number: 2×10^5) and reseeded into 6-well plates. After culturing for 48 h, the cells were stained with Hoechst 33342 (Sigma, St Louis, Mo.) and Annexin V Alexa Fluor® 568 Conjugate (Invitrogen, Carlsbad, Calif.). […] Results were processed using the Cellquest software (Becton-Dickinson).
# [5] = Kidney and liver function parameters; type: in vivo, mice
# From the text: To evaluate the kidney toxicity, organs were taken for histopathological observation using H&E staining. […] We also did a pathologic examination by H&E staining of other major organs (liver, lung, spleen and heart) from mice that received long-term treatments (not shown). […] Finally, we tested the blood parameters. Levels of secreted liver enzymes (AST and ALT), and blood urea nitrogen were all unchanged after a four-dose treatment with LPC or LPI, indicating a lack of damage to the liver and the kidneys (Table 2).
# After the therapeutic experiment was complete, blood samples were collected and allowed to clot for 2 h at room temperature. Serum was obtained through centrifugation for 20 min at 2,000 g. For liver and renal function experiments, the levels of aspartate aminotransferase, alanine aminotransferase, and blood urea nitrogen in the serum were measured. Major organs were collected after treatment and were formalin fixed and processed for routine H&E staining using standard methods. Images were collected using a Nikon light microscope (Nikon). After the A375M tumor reached 600 mm^3, the mice were treated with two weekly IV injections of LPC NPs at a dose of 3.0 mg/kg Pt. Seven days post the last injection, the mice were sacrificed and the tumors are assayed with TUNEL.
# [6] = H&E histopathology of organs; type: in vivo, mice; settings: long-term treatments
# H460 cells [7] = test: In vitro cell viability assay (MTT); type: cell-based, human; settings: NCI-H460, 36 h
# Experimental: In vitro cell viability of IEP nanoparticles was determined by using the 3-[4,5-dimethylthiazol-2-yl]-2,5-diphenyltetrazolium bromide (MTT) assay. H460 cells were seeded at a density of 1×10^4 per well in96-well plates 24 hours prior to treatment. The cells were treated with different concentrations of IEP-PEG, IEP-PEG AA, free Indium chloride, free outer liposome and free etoposide phosphate for 36 h. The concentrations of indium chloride and free liposomes were maintained in equal mounts used for IEP-PEG and IEP-PEG AA. The medium was replaced with fresh medium containing 5% MTT (Biosynth Inc.) solution and incubated at 37° C. for another 4 h. The resulting formazan crystals were solubilized by adding 100 μL DMSO/Methanol (50:50) solution to each well. The absorbance at 570 nm wavelength was measured with a micro plate reader. Cell viability was calculated as the percentage of the absorbance of the treated cells to that of untreated cells.
# caspase-3/7 = test: Caspase activation assay; type: cell-based, human; settings: NCI H-460 cells, 24 h
# Experimental: H460 cells (2×10^5) were treated as mentioned above with all formulations. The cells were lysed with a radio-immunoprecipitation assay (RIPA) buffer that was supplemented with a protease inhibitor cocktail (Promega, Madison, Wis.). The protein lysates were collected by centrifugation at 14,000 rpm for 10 min at 4° C. Protein concentrations were determined using the BCA assay kit (Pierce Biotechnology) following the manufacturer's recommendations. Thirty micrograms protein of each sample was used to detect caspase-3/7 activity of the cell lysates by using an in vitro assay kit according to the manufacturer's instructions (Promega).
# PARP-1 = test: Western blot analysis for PARP; type: cell-based, human; settings: H460 cells
# Experimental: Forty micrograms of protein per lane was resolved by 4%-12% SDS-PAG Electrophoresis (Invitrogen) before being transferred to polyvinylidenedifluoride (PVDF) membranes (Bio-Rad). The membranes were blocked for 1 h with 5% skim milk at room temperature and then incubated with mouse monoclonal poly (ADPribose) polymerase-1 (PARP-1) antibodies (1:500 dilution; Santa Cruz biotechnology, Inc.) and with β-actin antibody (1:4000 dilution; Santa Cruz biotechnology, Inc.) overnight at 4° C. β-actin was probed as the loading control. The membranes were washed 3 times and then incubated with a secondary antibody (1:4000 dilutions; Santa Cruz biotechnology, Inc.) at room temperature for 1 h. Goat anti-mouse secondary antibody is used for PARP and β-actin primary antibody. Finally, the membranes were washed 4 times and developed by an enhanced chemiluminescence system according to the manufacturer's instructions (Thermo scientific).
# H460 cells [8] = test: Cell cycle analysis (flow cytometry); type: cell-based, human; settings: H460, 24 h
# Experimental: H460 cells (2×10^5) were seeded in 6-well plates 24 h prior to the treatment. The formulations, IEP-PEG, IEP-PEG AA, InCl3, free liposome and free drug were added and incubated for 24 h at 37° C., humidified CO2 incubator. The cells were trypsinized and washed with PBS followed by fixation in pre-cooled 70% ethanol at −20° C. for at least 1 h. Fixed cells were washed with PBS staining buffer (BD Pharmingen, San Diego, Calif.) and incubated with RNAase (final concentration […]) at 37° C. for 30 min, followed by incubation with […] propidium iodide (PI) at room temperature for 30 min. Finally, cells were washed and suspended in PBS, and analyzed with a FACS Canto flow cytometer (BD Biosciences) to measure the PI intensity, which correlates with the DNA content in the cell cycle. A total of 20,000 events are acquired for each sample and data were analyzed with FACS Diva software (BD Biosciences).
# [9] = system: H460 subcutaneous xenograft; test: Tumor growth inhibition study, H460 xenograft; type: in vivo, mice; settings: IV every other day, EP 5 mg/kg
# Experimental: A tumor growth inhibition study was completed on H460 subcutaneous xenograft mouse models. Mice were inoculated with 5×10^6 […] by subcutaneous injection. Treatment was started when the tumor volumes reached about 100-150mm^3. The mice were randomly assigned into treatment groups (n=5), and intravenously injected different formulations, including […] and free EP. Four injections were performed every other day for a total of 4 injections at an EP dose of 5 mg/kg. Tumor sizes were measured every other day with calipers across their two perpendicular diameters, and the tumor volume was calculated using the following formula: […] Body weight of each mouse is recorded every other day. Humane sacrifice of mice was performed when tumors reached 20 mm in one dimension.
# H460 tumor = test: TUNEL and PCNA immunohistochemistry in H460 tumors; type: in vivo, mice; settings: three daily IV injections, 5 mg/kg
# Experimental: In vivo tumor cell apoptosis was determined by TdT-mediated dUTP Nick-End Labeling (TUNEL) assay. […] Twenty-four hours after the final injection, mice were sacrificed and tumors are fixed in 4% paraformaldehyde solution for 12 h before being embedded in paraffin and sectioned at a thickness of 5 μm. The TUNEL staining was performed as recommended by the manufacturer (Promega). DAPI mounting medium (Vector Laboratories, Inc., Burlingame, Calif.) was dropped on the sections for nucleus staining. Images of TUNEL-stained tumor sections were captured with a fluorescence microscope (Nikon Corp., Tokyo, Japan). The percentage of apoptotic cells was obtained by dividing the number of apoptotic cells(TUNEL positive cells shown as green dots) from the number of total cells(blue nuclei stained by DAPI, not shown) in each microscopic field, and 10 representative microscopic fields were randomly selected in each treatment group for this analysis. Proliferation of tumor cells after the aforementioned treatments and dosing schedule was detected by immunohistochemistry, using an antibody against proliferating cell nuclear antigen (PCNA) (1:200 dilution, Santa Cruz). The immunohistochemistry was performed using a mouse-specific HRP/DAB detection IHC kit as recommended by the manufacturer (Abcam, Cambridge, Mass.). […]
Compound,pIC50 (A375M cells [1]),pIC50 (1205Lu cells),accumulation in the tumors [2],tumor growth [3],apoptosis in tumor (TUNEL) (1205Lu xenograft tumors) [%],tumor growth (1205Lu xenograft tumors; weekly IV),apoptotic cells in the untreated cell population (A375M cells [4]),"AST and ALT functional parameters ([5]; A375M study, FIG. 33)","ALT ([5]; four-dose treatment, mean ± SD) [U/L]","AST ([5]; four-dose treatment, mean ± SD) [U/L]","BUN ([5]; four-dose treatment, mean ± SD) [mg/dL]",damage of other major organs (H&E) [6],cell viability / toxicity (MTT) (H460 cells [7]),caspases 3 and 7 activity relative to untreated control (caspase-3/7),increase in the 89 kDa PARP-1 cleavage product (PARP-1),cells at G2/M phase (H460 cells [8]),tumor growth [9],PCNA positive cells in tumor sections (H460 tumor)
"N.N.[Cl][Pt][Cl] [CDDP, cis-diaminedichloroplatinum(II)]",4.99,4.91,1.2 % of the injected dose per gram,ineffective; also recorded: not effective at all,6.3,partial effect,less than 6%,fall within the normal range,54.3 ± 9.7,105.7 ± 27.1,25.7 ± 0.6,no toxicities in heart and lung,,,,,,
"COc1cc([C@@H]2c3cc4c(cc3[C@@H](O[C@@H]3O[C@@H]5CO[C@@H](C)O[C@H]5[C@H](O)[C@H]3O)[C@H]3COC(=O)[C@H]23)OCO4)cc(OC)c1OP(=O)(O)O [EP, Etoposide phosphate]",,,,,,,,,,,,,dose-dependent toxicity,4 fold,readily detectable,About 50%,minimal impact on tumor growth,75-80%
[Cl-].[Cl-].[Cl-].[In+3] [Indium chloride],,,,,,,,,,,,,no effect on viability,no effect,no effect,no discernable effect,,
